Laboratory results reported in patent US10160747B2, “Compounds and methods for kinase modulation, and indications therefor” (Plexxikon Inc., priority 2016, dated 2018).

Tests used:
[1] = tested on: MOLM-14 F691L (endogenous FLT3 ITD and transfected FLT3 F691L); assay: MOLM-14 F691L cell proliferation assay (CellTiter-Glo); format: cell-based; conditions: Homo sapiens, MOLM-14, 72 h; 3 d growth, GMean
Summary of the method: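 MOLM-14 derivatives carrying D835Y or F691L, selected under escalating AC220, were seeded at 1×10^4 cells/well and exposed to an 8-point 1:3 compound series (1 to 0.00046 μM, 0.2% DMSO final) for three days at 37° C., 5% CO2. CellTiter-Glo luminescence (ATP content) versus concentration gave IC50.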

FLT3-D835Y = molecular target: T1, FLT3-D835Y (Homo sapiens, UniProt P36888, D835Y); assay: FLT3-D835Y recombinant enzyme kinase assay (AlphaScreen); format: biochemical; conditions: 8 pt, GMean
T1 construct: purchased Invitrogen PV3967
T1 sequence (P36888 27-993 D835Y): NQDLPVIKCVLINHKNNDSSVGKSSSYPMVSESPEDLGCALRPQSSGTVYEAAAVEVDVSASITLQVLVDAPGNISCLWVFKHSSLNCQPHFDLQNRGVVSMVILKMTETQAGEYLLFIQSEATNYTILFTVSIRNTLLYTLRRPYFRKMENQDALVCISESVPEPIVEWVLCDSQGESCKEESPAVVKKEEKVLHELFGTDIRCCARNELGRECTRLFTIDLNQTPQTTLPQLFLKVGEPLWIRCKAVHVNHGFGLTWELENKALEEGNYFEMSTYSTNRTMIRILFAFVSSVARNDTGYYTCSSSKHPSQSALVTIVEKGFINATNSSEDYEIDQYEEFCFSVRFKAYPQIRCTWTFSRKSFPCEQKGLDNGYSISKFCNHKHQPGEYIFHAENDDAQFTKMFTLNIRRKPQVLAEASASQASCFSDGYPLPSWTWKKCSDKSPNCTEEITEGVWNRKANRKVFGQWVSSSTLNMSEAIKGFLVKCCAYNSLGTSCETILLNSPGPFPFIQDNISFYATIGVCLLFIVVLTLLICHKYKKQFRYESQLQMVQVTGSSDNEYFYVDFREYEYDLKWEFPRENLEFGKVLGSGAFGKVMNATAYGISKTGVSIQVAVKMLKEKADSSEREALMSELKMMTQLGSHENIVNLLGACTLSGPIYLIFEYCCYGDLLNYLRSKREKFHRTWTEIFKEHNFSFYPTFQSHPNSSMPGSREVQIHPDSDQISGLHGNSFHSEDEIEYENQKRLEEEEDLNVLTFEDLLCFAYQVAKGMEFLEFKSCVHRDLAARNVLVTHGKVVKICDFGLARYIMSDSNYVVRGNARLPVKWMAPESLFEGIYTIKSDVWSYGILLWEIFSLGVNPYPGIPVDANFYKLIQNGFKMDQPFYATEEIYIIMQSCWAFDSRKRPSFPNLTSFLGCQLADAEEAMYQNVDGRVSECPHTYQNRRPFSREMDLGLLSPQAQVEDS
Summary of the method: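 Enzyme plus biotinylated poly(Glu4-Tyr) substrate (30 nM) mixed with compound, then ATP added. Donor beads went in for 20 min at room temperature, then PY20 acceptor beads for 60 min. AlphaScreen read; ATP was 10 μM for FLT3-ITD/D835Y and 100 μM for c-KIT.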

SMILES	IC50 [1] [µM]	IC50 (FLT3-D835Y) [µM]
Cn1cc(Nc2ncc(-c3ccc(CC(=O)Nc4cccc(C(C)(C)C#N)c4)cc3)cn2)cn1 [Compound P-0158, N-[3-(1-cyano-1-methyl-ethyl)phenyl]-2-[4-[2-[(1-methylpyrazol-4-yl)amino]pyrimidin-5-yl]phenyl]acetamide]	0.0001 to 10	0.0001 to 10
COc1ncc(NC(=O)Cc2ccc(-c3cnc(Nc4cn(C)cn4)nc3)cc2F)cc1C(F)(F)F [Compound P-0101, 2-[2-fluoro-4-[2-[(1-methylimidazol-4-yl)amino]pyrimidin-5-yl]phenyl]-N-[6-methoxy-5-(trifluoromethyl)-3-pyridyl]acetamide]	0.0001 to 10	0.0001 to 10
O=C(Cc1ccc(-c2cnc3[nH]c(-c4ccc(N5CCOCC5)nc4)cc3c2)c(F)c1)Nc1cncc(C(F)(F)F)c1 [Compound P-0198, 2-[3-fluoro-4-[2-(6-morpholino-3-pyridyl)-1H-pyrrolo[2,3-b]pyridin-5-yl]phenyl]-N-[5-(trifluoromethyl)-3-pyridyl]acetamide]	0.0001 to 10	0.0001 to 10
Cn1cc(Nc2ncc(-c3ccc(CC(=O)Nc4ccc(C(F)(F)F)cn4)cc3)cn2)cn1 [Compound P-0109, 2-[4-[2-[(1-methylpyrazol-4-yl)amino]pyrimidin-5-yl]phenyl]-N-[5-(trifluoromethyl)-2-pyridyl]acetamide]	0.0001 to 10	0.0001 to 10
Cn1cc(Nc2ncc(-c3ccc(CC(=O)Nc4cccc(OC(F)(F)F)c4)cc3)cn2)cn1 [Compound P-0157, 2-[4-[2-[(1-methylpyrazol-4-yl)amino]pyrimidin-5-yl]phenyl]-N-[3-(trifluoromethoxy)phenyl]acetamide]	0.0001 to 10	0.0001 to 10
Cn1cnc(Nc2ncc(-c3ccc(CC(=O)Nc4cnc(Cl)c(C(F)(F)F)c4)c(F)c3)cn2)c1 [Compound P-0100, N-[6-chloro-5-(trifluoromethyl)-3-pyridyl]-2-[2-fluoro-4-[2-[(1-methylimidazol-4-yl)amino]pyrimidin-5-yl]phenyl]acetamide]	0.0001 to 10	0.0001 to 10

The remaining lines, values ahead:

IC50 [1] [µM]	IC50 (FLT3-D835Y) [µM]	SMILES
0.0001 to 10	0.0001 to 10	Cn1cc(Nc2ncc(-c3ccc(CC(=O)Nc4ccnc(C5CC5)c4)c(F)c3)cn2)cn1 [Compound P-0098, N-(2-cyclopropyl-4-pyridyl)-2-[2-fluoro-4-[2-[(1-methylpyrazol-4-yl)amino]pyrimidin-5-yl]phenyl]acetamide]
0.0001 to 10	0.0001 to 10	CCc1cncc(NC(=O)Cc2ccc(-c3cnc(Nc4cnn(C)c4)nc3)cc2F)c1 [Compound P-0111, N-(5-ethyl-3-pyridyl)-2-[2-fluoro-4-[2-[(1-methylpyrazol-4-yl)amino]pyrimidin-5-yl]phenyl]acetamide]
0.0001 to 10	0.0001 to 10	Cc1ncc(NC(=O)Cc2ccc(-c3cnc(Nc4cnn(C)c4)nc3)cc2F)cc1C(F)(F)F [Compound P-0091, 2-[2-fluoro-4-[2-[(1-methylpyrazol-4-yl)amino]pyrimidin-5-yl]phenyl]-N-[6-methyl-5-(trifluoromethyl)-3-pyridyl]acetamide]
0.0001 to 10	0.0001 to 10	Cn1cc(Nc2ncc(-c3ccc(CC(=O)Nc4cccc(C(F)(F)F)c4)cc3)cn2)cn1 [Compound P-0141, 2-[4-[2-[(1-methylpyrazol-4-yl)amino]pyrimidin-5-yl]phenyl]-N-[3-(trifluoromethyl)phenyl]acetamide]
0.0001 to 10	0.0001 to 10	Cn1cc(Nc2ncc(-c3ccc(CC(=O)Nc4cc(Cl)c(C5CC5)cn4)cc3)cn2)cn1 [Compound P-0164, N-(4-chloro-5-cyclopropyl-2-pyridyl)-2-[4-[2-[(1-methylpyrazol-4-yl)amino]pyrimidin-5-yl]phenyl]acetamide]
0.0001 to 10	0.0001 to 10	Cn1cc(Nc2ncc(-c3ccc(CC(=O)Nc4cnc(F)c(C(C)(F)F)c4)cc3)cn2)cn1 [Compound P-0104, N-[5-(1,1-difluoroethyl)-6-fluoro-3-pyridyl]-2-[4-[2-[(1-methylpyrazol-4-yl)amino]pyrimidin-5-yl]phenyl]acetamide]
